Columns and labels:
[1] = target: T1, CDK2/cyclin A (Homo sapiens, UniProt P24941); test: Inhibition of CDK2/Cyclin A Retinoblastoma Kinase Activity; type: biochemical; conditions: apparent Ki
T1 construct: made in house; host or cells: CDK2: insect cells (baculovirus); cyclin A: E. coli
Experimental: (§1) Cyclin-dependent kinase activity was measured by quantifying the enzyme-catalyzed, time-dependent incorporation of radioactive phosphate from [^32P]ATP or [^33P]ATP into a protein substrate. Unless noted otherwise, assays were performed in 96-well plates in a total volume of 50 μL, in the presence of 10 mM HEPES (N-[2-hydroxyethyl]piperazine-N′-[2-ethanesulfonic acid]) (pH 7.4), 10 mM MgCl2, 25 μM adenosine triphosphate (ATP), 1 mg/mL ovalbumin, 5 μg/mL leupeptin, 1 mM dithiothreitol, 10 mM beta-glycerophosphate, 0.1 mM sodium vanadate, 1 mM sodium fluoride, 2.5 mM ethylene glycol-bis(β-aminoethyl ethKer)-N,N,N′N′-tetraacetic acid (EGTA), 2% (v/v) dimethylsulfoxide, and 0.03–0.4 μCi [^32/33P]ATP per reaction. Reactions were initiated with appropriate enzyme, incubated at 30° C., and terminated after 20 minutes by the addition of ethylenediaminetetraacetic acid (EDTA) to 250 mM. The phosphorylated substrate was then captured on a nitrocellulose or phosphocellulose membrane using a 96-well filtration manifold, and unincorporated radioactivity was removed by repeated washing with 0.85% phosphoric acid. Radioactivity was quantified by exposing the dried membranes to a phosphorimager.
(§2) Apparent Ki values were measured by assaying enzyme activity in the presence of different inhibitor compound concentrations and subtracting the background radioactivity measured in the absence of enzyme. Inhibition data were fit to an equation for competitive inhibition using Kaleidagraph (Synergy Software), or were fit to an equation for competitive tight-binding inhibition using the software KineTic (BioKin, Ltd.).
Inhibition of CDK2/Cyclin A Retinoblastoma Kinase Activity
CDK2 was purified using published methodology (Rosenblatt et al., “Purification and Crystallization of Human Cyclin-dependent Kinase 2,” J. Mol. Biol., vol. 230, 1993, pp. 1317–1319) from insect cells that had been infected with a baculovirus expression vector. […] A complex of CDK2 and proteolyzed cyclin A was prepared and purified by gel filtration. The substrate for this assay was the same Rb substrate fragment used for the CDK4 assays, and the methodology of the CDK2/cyclin A and the CDK4/cyclin D3 assays was essentially the same, except that CDK2 was present at 150 nM or 5 nM. Ki values were measured as described above.

[2] = system: HCT 116 cell line; test: Inhibition of Cell Growth (MTT tetrazolium salt assay); type: cell-based; conditions: Homo sapiens, HCT 116, MTT; for IC50: 50% inhibition of growth, read-out: HCT 116 IC50; for IC90: read-out: HCT 116 IC90
Experimental: Inhibition of Cell Growth: Assessment of Cytotoxicity
Inhibition of cell growth was measured using the tetrazolium salt assay, which is based on the ability of viable cells to reduce 3-(4,5-dimethylthiazol-2-yl)-2,5-[2H]-diphenyltetrazolium bromide (MTT) to formazan (Mossman, Journal of Immunological Methods, vol. 65 (1983), pp. 55–58). The water-insoluble purple formazan product was then detected spectrophotometrically. The HCT 116 cell line was grown in 96-well plates. Cells were plated in the appropriate medium at a volume of 135 μl/well in McCoy's 5A Medium. Plates were incubated for four hours before addition of inhibitor compounds. Different concentrations of inhibitor compounds were added in 0.5% (v/v) dimethylsulfoxide (15 μL/well), and cells were incubated at 37° C. (5% CO2) for four to six days (depending on cell type). At the end of the incubation, MTT was added to a final concentration of 0.2 mg/mL, and cells were incubated for 4 hours more at 37° C. After centrifugation of the plates and removal of medium, the absorbance of the formazan (solubilized in dimethylsulfoxide) was measured at 540 nm. The concentration of inhibitor compound causing 50% inhibition of growth was determined from the linear portion of a semi-log plot of inhibitor concentration versus percentage inhibition. All results were compared to control cells treated only with 0.5% (v/v) dimethylsulfoxide.

[3] = target: T2, FGFR1 tyrosine kinase (Homo sapiens, UniProt P11362, C488A/C584S/L457V); test: Inhibition of phosphorylated FGF receptor tyrosine kinase activity; type: biochemical; conditions: for inhibition at 1 µM: read-out: FGF % Inhib. at 1 μM
T2 construct: the cytosolic domain of FGFR1 tyrosine kinase (amino acids 456–766); made in house; host or cells: Sf9 insect cells (baculovirus)
Experimental: Inhibition of Phosphorylated FGF Receptor and LCK Tyrosine Kinase Activity
Cloning, expression and purification of the cytosolic domain of FGFR1 tyrosine kinase (amino acids 456–766) containing three amino acid substitutions (L457V, C488A, and C584S) were conducted as previously described (Mohammadi, M., Schlessinger, J., & Hubbard, S. R. (1996) Cell 86, 577–587). This domain was expressed in Sf9 insect cells using a baculovirus expression vector, and protein was purified using conventional techniques. The LCK tyrosine kinase was expressed in insect cells as an N-terminal deletion starting from amino acid 223 to the end of the protein at amino acid 509. The N-terminus of the protein also had two amino acid substitutions, P223M and C 224D. Kinases were purified using conventional chromatographic methods.
Tyrosine kinase activity was measured using a coupled, continuous spectrophotometric assay, in which production of phosphorylated poly(Glu, Tyr; 4:1) substrate and ADP is coupled to the pyruvate kinase-catalyzed transfer of a phosphate from phosphoenolpyruvate to ADP, with generation of pyruvate and regeneration of ATP. Pyruvate production is in turn coupled to the lactate dehydrogenase-catalyzed reduction of pyruvate to form lactate, with concomitant conversion of NADH to NAD+. Loss of NADH is monitored by measuring absorbance at 340 nm (see e.g., Technikova-Dobrova et al., “Spectrophotometric determination of functional characteristics of protein kinases with coupled enzymatic assay,” FEBS Letters, vol. 292 (1991), pp. 69–72). Enzyme activity was measured in the presence of 200 mM HEPES (pH 7.5), 2 mM phosphoenolpyruvate, 0.3 mM NADH, 20 mM MgCl2, 100 μM ATP, 5 mM DTT, 5.1 or 25 mM poly (Glu,Tyr) 4:1 for P-FGF or P-LCK assays, respectively, and 15 units/mL each of pyruvate kinase and lactate dehydrogenase. Phosphorylated FGF receptor kinase was present at 100 nM and phosphorylated LCK kinase was present at 50 nM. Assays were performed under initial rate conditions at 37° C., and rates were corrected for any background rate measured in the absence of enzyme. Percent inhibition was calculated relative to control enzyme assayed in the presence of 2% (v/v) DMSO.

[4] = target: CDK4/cyclin D3 (Homo sapiens, UniProt P11802); test: Inhibition of CDK4/Cyclin D Retinoblastoma Kinase Activity; type: biochemical; conditions: apparent Ki
Experimental: as §1, §2
Inhibition of CDK4/Cyclin D Retinoblastoma Kinase Activity
A complex of human CDK4 and cyclin D3, or a complex of human CDK4 and genetically truncated (1–264) cyclin D3, was purified using traditional biochemical chromatographic techniques from insect cells that had been co-infected with the corresponding baculovirus expression vectors (see e.g., Meijer and Kim, “Chemical Inhibitors of Cyclin-Dependent Kinases,” Methods in Enzymol,. vol. 283 (1997), pp. 113–128.). The enzyme complex (5 or 50 nM) was assayed with 0.3–0.5 μg of purified recombinant retinoblastoma protein fragment (Rb) as a substrate. The engineered Rb fragment (residues 386–928 of the native retinoblastoma protein; 62.3 kDa) contains the majority of the phosphorylation sites found in the native 106-kDa protein, as well as a tag of six histidine residues for ease of purification. Phosphorylated Rb substrate was captured by microfiltration on a nitrocellulose membrane and quantified using a phosphorimager as described above. For measurement of tight-binding inhibitors, the enzyme complex concentration was lowered to 5 nM, and the assay duration was extended to 60 minutes, during which the time-dependence of product formation was linear.

T2 sequence (P11362 456-766 L457V/C488A/C584S): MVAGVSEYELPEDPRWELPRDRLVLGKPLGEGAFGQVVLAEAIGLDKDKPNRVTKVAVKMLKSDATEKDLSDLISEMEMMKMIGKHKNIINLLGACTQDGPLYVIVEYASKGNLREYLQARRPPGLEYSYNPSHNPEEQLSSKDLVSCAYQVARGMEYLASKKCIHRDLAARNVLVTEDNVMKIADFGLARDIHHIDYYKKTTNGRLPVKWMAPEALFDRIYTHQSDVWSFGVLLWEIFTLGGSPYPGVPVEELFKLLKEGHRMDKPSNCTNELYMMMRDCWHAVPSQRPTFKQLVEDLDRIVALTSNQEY
Sequence of CDK4/cyclin D3 (P11802 2-303 limits assumed): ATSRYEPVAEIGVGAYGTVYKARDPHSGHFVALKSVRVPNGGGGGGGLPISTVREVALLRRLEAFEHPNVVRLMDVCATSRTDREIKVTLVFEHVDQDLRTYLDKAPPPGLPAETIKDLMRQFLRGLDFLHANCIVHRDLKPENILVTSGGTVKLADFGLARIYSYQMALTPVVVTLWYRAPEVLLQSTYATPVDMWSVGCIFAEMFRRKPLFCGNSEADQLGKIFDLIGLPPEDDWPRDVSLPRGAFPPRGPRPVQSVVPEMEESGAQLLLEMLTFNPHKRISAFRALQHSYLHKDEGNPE
Sequence of CDK4/cyclin D3 (P30281 1-264 limits assumed, further chain): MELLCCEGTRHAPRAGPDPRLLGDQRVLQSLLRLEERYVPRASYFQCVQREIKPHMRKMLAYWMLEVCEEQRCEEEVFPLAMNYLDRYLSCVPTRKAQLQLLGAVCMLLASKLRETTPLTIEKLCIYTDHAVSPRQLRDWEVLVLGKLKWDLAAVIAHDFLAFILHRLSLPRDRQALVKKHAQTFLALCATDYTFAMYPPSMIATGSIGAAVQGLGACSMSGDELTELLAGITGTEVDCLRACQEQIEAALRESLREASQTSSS

| Structure (SMILES) | Ki [1] [µM] | IC50 [2] [µM] | IC90 [2] [µM] | inhibition at 1 µM [3] [%] | Ki [4] [µM] | Ki [3] [µM] |
| --- | --- | --- | --- | --- | --- | --- |
| Oc1cc(F)c(-c2ccc3[nH]nc(-c4nc5ccccc5[nH]4)c3c2)c(F)c1 [Example 50, 4-[-3-(1H-Benzoimidazol-2-yl)-1H-indazol-5-yl]-3,5-difluoro-phenol] | 0.073 | 1.8 | 5 | 89.6 | 0.253 |  |
| Cc1c(O)cccc1-c1ccc2[nH]nc(-c3nc4c(CO)cccc4[nH]3)c2c1 [Example 23, 3-[3-(4Hydroxymethyl-1H-benzoimidazol-2-yl)-1H-indazol-5-yl]-2-methyl-phenol] | 0.041 | 4 | 5 |  | 0.065 | 0.8 |
| CN1CCN(c2ccc3[nH]c(-c4n[nH]c5ccc(-c6cncc7ccccc67)cc45)nc3c2)CC1 [Example 20, 4-{3-[5-(4-Methyl-piperazin-1-yl)-1H-benzoimidazol-2-yl]-1H-indazol-5-yl}-isoquinoline] | 0.00093 | 0.07 | 0.4 | 96.9 | 0.0021 |  |
| Oc1ccc(F)c(-c2ccc3[nH]nc(-c4nc5ccccc5[nH]4)c3c2)c1F [Example 49, 3-[-3-(1H-Benzoimidazol-2-yl)-1H-indazol-5-yl]-2,4-difluoro-phenol] | 0.049 | 2.3 | 4.8 | 86.7 | 0.095 |  |
| c1ccc2c(-c3ccc4[nH]nc(-c5nc6c(CN7CCCC7)cccc6[nH]5)c4c3)cncc2c1 [Example 33, 4-[3-(4Pyrrolidin-1-ylmethyl-1H-benzoimidazol-2-yl)-1H-indazol-5-yl]-isoquinoline] | 0.001 | 0.055 | 0.16 | 51.6 | 0.0011 |  |
| COc1c(O)cccc1-c1ccc2[nH]nc(-c3nc4ccccc4[nH]3)c2c1 [Example 47, 3-[3-(1H-benzoimidazol-2-yl)-1H-indazol-5-yl]-2-methoxy-phenol] | 0.1 | 2.1 | 5 | 81.1 | 0.094 |  |
| Cc1c(-c2ccncc2)cncc1-c1ccc2[nH]nc(-c3nc4c(CN(C)C)cccc4[nH]3)c2c1 [Example 68, Dimethyl-{2-[5-(4-methyl-[3,4′]bipyridinyl-5-yl)-1H-indazol-3-yl]-1H-benzoimidazol-4-ylmethyl}-amine] | 0.0011 | 0.16 | 0.6 | 12.6 | 0.0047 |  |

The next lines start with the values.

| Ki [1] [µM] | IC50 [2] [µM] | IC90 [2] [µM] | inhibition at 1 µM [3] [%] | Ki [4] [µM] | Ki [3] [µM] | Structure (SMILES) |
| --- | --- | --- | --- | --- | --- | --- |
| 0.00025 | 0.086 | 0.23 | 29.7 | 0.00041 |  | CNCc1cccc2[nH]c(-c3n[nH]c4ccc(-c5cncc6ccccc56)cc34)nc12 [Example 32, [2-(5-Isoquinolin-4-yl-1H-indazol-3-yl)-1H-benzoimidazol-4-yl-methyl]-methyl-amine] |
| 0.029 | 1.9 | 5 | 59.6 | 0.015 |  | Cc1ccncc1-c1ccc2[nH]nc(/C=C/c3ccccc3)c2c1 [Example 43, 5-(4Methyl-pyridin-3-yl)-3-(E)styryl-1H-indazole] |
| 0.001 | 0.33 | 1.1 |  | 0.01 | 0.44 | c1ccc2c(-c3ccc4[nH]nc(-c5nc6ccccc6[nH]5)c4c3)cncc2c1 [Example 25, 4-[3-(1H-Benzoimidazol-2-yl)-1H-indazol-5-yl]-isoquinoline] |
| 0.001 | 0.18 | 0.62 | 52.4 | 0.011 |  | OCCc1cccc2[nH]c(-c3n[nH]c4ccc(-c5cncc6ccccc56)cc34)nc12 [Example 30] |
| 0.094 | 5 | 5 | 93.5 | 0.015 |  | Cc1c(-c2ccc3[nH]nc(/C=C/c4ccccc4)c3c2)ccc(CCCO)c1O [Example 22, 6-(3-Hydroxy-propyl)-2-methyl-3-[3-((E)-styryl)-1H-indazol-5-yl]-phenol] |
| 0.001 | 0.13 | 0.37 | 40.5 | 0.0032 |  | CC(CO)CNCc1cccc2[nH]c(-c3n[nH]c4ccc(-c5cncc6ccccc56)cc34)nc12 (stereo not shown) [Example 35, 3-{[2-(5-Isoquinolin-4-yl-1H-indazol-3-yl)-1H-benzoimidazol-4-ylmethyl]-amino}-2-methyl-propan-1-ol] |
| 0.001 | 0.78 | 1.6 | 31.3 | 0.054 |  | Clc1cccc2[nH]c(-c3n[nH]c4ccc(-c5cncc6ccccc56)cc34)nc12 [Example 19, 4-[3-(4-Chloro-1H-benzoimidazol-2-yl)-1H-indazol-5-yl]-isoquinoline] |
| 1.1 |  |  | 45.4 | 0.69 |  | C(=C\c1n[nH]c2ccc(-c3ccc4ccncc4c3)cc12)/c1ccccc1 [Example 24, 7-[3-((E)Styryl)-1H-indazol-5-yl]-isoquinoline] |
